In ChEMBL document CHEMBL4507310, “Data for DCP probe A-1211212” (2021):

Experiments:
[1] = target: Acetylcholinesterase (Homo sapiens) (UniProt P22303); assay: Acetylcholinesterase (h) Eurofins-Cerep enzyme and uptake assay; settings: Compound concentration 10.0 uM
[2] = target: T1, Alpha-2A adrenergic receptor (Homo sapiens) (UniProt P08913); assay: Alpha2A (h) Eurofins-Cerep binding assay; design: ligand concentration 1 nM; settings: filed as antagonist, Compound concentration 10.0 uM
T1 sequence (whole entry): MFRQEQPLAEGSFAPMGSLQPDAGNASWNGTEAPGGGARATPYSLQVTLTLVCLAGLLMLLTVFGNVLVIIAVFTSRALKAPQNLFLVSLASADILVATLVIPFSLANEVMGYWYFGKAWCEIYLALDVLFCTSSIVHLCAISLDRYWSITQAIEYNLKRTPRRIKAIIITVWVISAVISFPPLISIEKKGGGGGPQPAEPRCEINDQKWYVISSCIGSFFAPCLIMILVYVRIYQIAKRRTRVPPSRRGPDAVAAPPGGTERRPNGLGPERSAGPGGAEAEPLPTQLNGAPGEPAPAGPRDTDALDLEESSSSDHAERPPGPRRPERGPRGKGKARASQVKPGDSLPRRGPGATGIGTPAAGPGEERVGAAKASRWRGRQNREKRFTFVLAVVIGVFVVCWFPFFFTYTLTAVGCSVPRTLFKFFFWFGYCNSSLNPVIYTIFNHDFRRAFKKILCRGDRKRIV

[3] = target: Type-2 angiotensin II receptor (Homo sapiens) (UniProt P50052); assay: AT2 (h) Eurofins-Cerep binding assay; design: ligand concentration 0.01 nM; settings: filed as agonist, Compound concentration 10.0 uM
[4] = target: T2, Muscarinic acetylcholine receptor M4 (Homo sapiens) (UniProt P08173); assay: M4 (h) Eurofins-Cerep binding assay; design: ligand concentration 0.2 nM; settings: filed as antagonist, Compound concentration 10.0 uM
T2 sequence (whole entry): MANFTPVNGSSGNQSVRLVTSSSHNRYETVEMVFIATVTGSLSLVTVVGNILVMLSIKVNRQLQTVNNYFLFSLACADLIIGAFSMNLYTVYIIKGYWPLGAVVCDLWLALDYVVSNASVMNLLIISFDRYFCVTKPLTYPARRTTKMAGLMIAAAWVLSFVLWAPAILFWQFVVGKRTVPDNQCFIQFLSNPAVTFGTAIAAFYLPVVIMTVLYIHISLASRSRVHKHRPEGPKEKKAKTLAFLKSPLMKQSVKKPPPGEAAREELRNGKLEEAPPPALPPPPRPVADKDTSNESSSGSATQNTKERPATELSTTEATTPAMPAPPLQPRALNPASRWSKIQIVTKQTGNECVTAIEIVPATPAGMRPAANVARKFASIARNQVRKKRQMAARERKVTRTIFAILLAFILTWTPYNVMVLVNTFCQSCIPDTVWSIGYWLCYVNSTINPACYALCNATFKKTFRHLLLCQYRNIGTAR

[5] = target: Activin receptor type-1 (Homo sapiens) (UniProt Q04771); settings: Compound concentration 1000.0 nM
[6] = system: ALK tyrosine kinase receptor (Homo sapiens), Q9UM73 [L1196M]; settings: Compound concentration 1000.0 nM
[7] = target: Calcium/calmodulin-dependent protein kinase type II subunit alpha (Homo sapiens) (UniProt Q9UQM7); settings: Compound concentration 1000.0 nM
[8] = target: Cyclin-dependent kinase 2 (Homo sapiens) (UniProt P24941); settings: Compound concentration 1000.0 nM
[9] = target: Cyclin-dependent kinase 3 (Homo sapiens) (UniProt Q00526); settings: Compound concentration 1000.0 nM
[10] = target: Tyrosine-protein kinase CSK (Homo sapiens) (UniProt P41240); settings: Compound concentration 1000.0 nM
[11] = target: Casein kinase I isoform gamma-2 (Homo sapiens) (UniProt P78368); settings: Compound concentration 1000.0 nM
[12] = target: Casein kinase II subunit alpha' (Homo sapiens) (UniProt P19784); settings: Compound concentration 1000.0 nM
[13] = system: Epidermal growth factor receptor (Homo sapiens), P00533 [UNDEFINED MUTATION]; settings: Compound concentration 1000.0 nM
[14] = target: Fibroblast growth factor receptor 4 (Homo sapiens) (UniProt P22455); settings: Compound concentration 1000.0 nM
[15] = target: Beta-adrenergic receptor kinase 1 (Homo sapiens) (UniProt P25098); settings: Compound concentration 1000.0 nM
[16] = target: Insulin receptor (Homo sapiens) (UniProt P06213); settings: Compound concentration 1000.0 nM
[17] = target: Interleukin-1 receptor-associated kinase 4 (Homo sapiens) (UniProt Q9NWZ3); settings: Compound concentration 1000.0 nM
[18] = target: Mitogen-activated protein kinase 8 (Homo sapiens) (UniProt P45983); settings: Compound concentration 1000.0 nM
[19] = target: Mitogen-activated protein kinase 9 (Homo sapiens) (UniProt P45984); settings: Compound concentration 1000.0 nM
[20] = system: Mast/stem cell growth factor receptor Kit (Homo sapiens), P10721 [A829P]; settings: Compound concentration 1000.0 nM
[21] = system: Mast/stem cell growth factor receptor Kit (Homo sapiens), P10721 [V559D,V654A]; settings: Compound concentration 1000.0 nM
[22] = target: Macrophage-stimulating protein receptor (Homo sapiens) (UniProt Q04912); settings: Compound concentration 1000.0 nM
[23] = target: Serine/threonine-protein kinase 26 (Homo sapiens) (UniProt Q9P289); settings: Compound concentration 1000.0 nM
[24] = target: Muscle, skeletal receptor tyrosine-protein kinase (Homo sapiens) (UniProt O15146); settings: Compound concentration 1000.0 nM
[25] = target: Myosin-IIIb (Homo sapiens) (UniProt Q8WXR4); settings: Compound concentration 1000.0 nM
[26] = target: Phosphatidylinositol 4,5-bisphosphate 3-kinase catalytic subunit beta isoform (Homo sapiens) (UniProt P42338); settings: Compound concentration 1000.0 nM
[27] = target: Phosphatidylinositol 5-phosphate 4-kinase type-2 beta (Homo sapiens) (UniProt P78356); settings: Compound concentration 1000.0 nM
[28] = target: Ribosomal protein S6 kinase alpha-3 (Homo sapiens) (UniProt P51812); settings: Compound concentration 1000.0 nM
[29] = target: Serine/threonine-protein kinase 33 (Homo sapiens) (UniProt Q9BYT3); settings: Compound concentration 1000.0 nM
[30] = target: Serine/threonine-protein kinase tousled-like 1 (Homo sapiens) (UniProt Q9UKI8); settings: Compound concentration 1000.0 nM
[31] = target: Serine/threonine-protein kinase WNK1 (Homo sapiens) (UniProt Q9H4A3); settings: Compound concentration 1000.0 nM
[32] = target: Sigma intracellular receptor 2 (Homo sapiens, UniProt Q5BJF2); settings: Compound concentration 10.0 uM
Sequence of Sigma intracellular receptor 2 (Q5BJF2 whole entry): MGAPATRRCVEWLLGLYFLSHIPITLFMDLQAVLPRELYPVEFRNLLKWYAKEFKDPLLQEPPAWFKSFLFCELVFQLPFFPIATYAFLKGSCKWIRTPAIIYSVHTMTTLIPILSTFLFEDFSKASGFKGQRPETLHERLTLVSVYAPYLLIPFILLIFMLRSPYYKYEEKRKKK

Sequence of Acetylcholinesterase (Homo sapiens) (P22303 whole entry): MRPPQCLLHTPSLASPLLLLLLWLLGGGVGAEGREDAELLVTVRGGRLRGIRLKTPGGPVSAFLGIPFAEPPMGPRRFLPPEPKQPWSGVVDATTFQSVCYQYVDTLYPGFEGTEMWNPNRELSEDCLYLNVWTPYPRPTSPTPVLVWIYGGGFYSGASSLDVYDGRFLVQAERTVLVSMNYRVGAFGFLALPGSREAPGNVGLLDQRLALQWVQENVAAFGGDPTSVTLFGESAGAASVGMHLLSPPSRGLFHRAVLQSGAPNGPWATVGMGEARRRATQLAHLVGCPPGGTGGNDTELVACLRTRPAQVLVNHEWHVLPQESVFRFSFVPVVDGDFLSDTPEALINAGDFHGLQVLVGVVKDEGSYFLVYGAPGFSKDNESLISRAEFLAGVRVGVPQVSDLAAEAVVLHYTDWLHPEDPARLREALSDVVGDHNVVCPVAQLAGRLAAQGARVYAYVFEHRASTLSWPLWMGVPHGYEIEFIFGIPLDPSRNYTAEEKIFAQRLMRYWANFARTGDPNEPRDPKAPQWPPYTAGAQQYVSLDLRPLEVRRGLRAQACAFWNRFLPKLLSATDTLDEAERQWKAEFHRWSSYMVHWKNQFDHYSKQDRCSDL
Sequence of Muscle, skeletal receptor tyrosine-protein kinase (Homo sapiens) (O15146 whole entry): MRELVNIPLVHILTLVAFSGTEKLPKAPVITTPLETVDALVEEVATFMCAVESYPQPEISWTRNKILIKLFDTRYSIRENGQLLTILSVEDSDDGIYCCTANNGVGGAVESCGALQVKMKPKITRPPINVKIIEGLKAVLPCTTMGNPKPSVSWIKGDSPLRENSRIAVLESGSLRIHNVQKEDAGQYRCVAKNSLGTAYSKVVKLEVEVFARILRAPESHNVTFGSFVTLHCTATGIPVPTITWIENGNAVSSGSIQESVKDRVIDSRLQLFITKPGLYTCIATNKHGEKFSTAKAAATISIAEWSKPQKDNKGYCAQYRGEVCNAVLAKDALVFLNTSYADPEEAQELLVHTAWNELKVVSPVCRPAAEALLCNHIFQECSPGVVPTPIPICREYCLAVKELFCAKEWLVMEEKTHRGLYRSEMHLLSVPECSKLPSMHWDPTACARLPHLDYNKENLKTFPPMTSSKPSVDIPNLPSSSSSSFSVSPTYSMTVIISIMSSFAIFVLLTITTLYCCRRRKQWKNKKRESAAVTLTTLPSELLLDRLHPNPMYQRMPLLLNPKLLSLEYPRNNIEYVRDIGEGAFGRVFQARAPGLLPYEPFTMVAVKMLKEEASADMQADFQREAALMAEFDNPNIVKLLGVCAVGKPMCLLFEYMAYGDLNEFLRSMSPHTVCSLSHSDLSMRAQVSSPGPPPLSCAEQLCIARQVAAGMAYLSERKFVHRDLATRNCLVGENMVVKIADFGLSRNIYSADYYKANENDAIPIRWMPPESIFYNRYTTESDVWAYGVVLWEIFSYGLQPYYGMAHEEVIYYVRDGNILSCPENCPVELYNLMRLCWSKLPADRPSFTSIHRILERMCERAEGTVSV
Sequence of Calcium/calmodulin-dependent protein kinase type II subunit alpha (Homo sapiens) (Q9UQM7 whole entry): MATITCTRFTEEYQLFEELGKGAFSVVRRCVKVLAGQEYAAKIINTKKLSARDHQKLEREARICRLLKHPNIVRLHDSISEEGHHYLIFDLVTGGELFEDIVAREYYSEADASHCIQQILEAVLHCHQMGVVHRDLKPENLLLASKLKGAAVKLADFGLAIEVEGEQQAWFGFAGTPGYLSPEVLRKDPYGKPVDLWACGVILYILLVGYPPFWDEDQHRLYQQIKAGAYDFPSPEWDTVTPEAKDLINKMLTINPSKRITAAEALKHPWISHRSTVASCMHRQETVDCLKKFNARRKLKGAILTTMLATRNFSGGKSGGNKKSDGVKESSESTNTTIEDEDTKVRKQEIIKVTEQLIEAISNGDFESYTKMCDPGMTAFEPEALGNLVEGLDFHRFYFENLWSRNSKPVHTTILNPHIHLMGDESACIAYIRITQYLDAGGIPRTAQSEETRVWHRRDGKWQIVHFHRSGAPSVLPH
Sequence of Phosphatidylinositol 4,5-bisphosphate 3-kinase catalytic subunit beta isoform (Homo sapiens) (P42338 whole entry, looked up, canonical isoform): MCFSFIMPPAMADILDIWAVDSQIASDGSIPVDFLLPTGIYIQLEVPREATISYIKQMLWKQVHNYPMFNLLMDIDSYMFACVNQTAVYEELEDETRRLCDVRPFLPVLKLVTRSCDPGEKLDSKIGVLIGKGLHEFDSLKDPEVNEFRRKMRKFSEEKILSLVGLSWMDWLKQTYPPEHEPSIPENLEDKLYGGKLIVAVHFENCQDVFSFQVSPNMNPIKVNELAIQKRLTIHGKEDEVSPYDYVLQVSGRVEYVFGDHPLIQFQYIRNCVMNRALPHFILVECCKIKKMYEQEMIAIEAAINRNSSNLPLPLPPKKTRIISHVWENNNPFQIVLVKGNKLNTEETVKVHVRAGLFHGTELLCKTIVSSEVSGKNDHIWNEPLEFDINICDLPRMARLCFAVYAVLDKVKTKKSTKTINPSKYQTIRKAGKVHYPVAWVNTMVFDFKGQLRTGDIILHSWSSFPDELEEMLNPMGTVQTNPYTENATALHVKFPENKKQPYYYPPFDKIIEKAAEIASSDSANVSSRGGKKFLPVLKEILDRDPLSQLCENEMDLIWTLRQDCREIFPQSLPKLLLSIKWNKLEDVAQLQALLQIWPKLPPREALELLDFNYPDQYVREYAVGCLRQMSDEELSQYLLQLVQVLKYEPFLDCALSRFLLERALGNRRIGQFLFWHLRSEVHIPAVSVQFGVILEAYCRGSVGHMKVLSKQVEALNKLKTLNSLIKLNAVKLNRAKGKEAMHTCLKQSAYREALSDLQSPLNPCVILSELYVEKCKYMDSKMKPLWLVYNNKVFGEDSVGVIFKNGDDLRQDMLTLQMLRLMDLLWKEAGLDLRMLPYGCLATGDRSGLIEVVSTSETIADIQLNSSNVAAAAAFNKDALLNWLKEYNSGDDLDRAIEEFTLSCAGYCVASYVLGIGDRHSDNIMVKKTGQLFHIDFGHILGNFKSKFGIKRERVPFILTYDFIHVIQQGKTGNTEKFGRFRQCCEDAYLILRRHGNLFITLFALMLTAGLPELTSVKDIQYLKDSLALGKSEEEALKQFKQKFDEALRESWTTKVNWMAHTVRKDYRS
Sequence of Phosphatidylinositol 5-phosphate 4-kinase type-2 beta (Homo sapiens) (P78356 whole entry): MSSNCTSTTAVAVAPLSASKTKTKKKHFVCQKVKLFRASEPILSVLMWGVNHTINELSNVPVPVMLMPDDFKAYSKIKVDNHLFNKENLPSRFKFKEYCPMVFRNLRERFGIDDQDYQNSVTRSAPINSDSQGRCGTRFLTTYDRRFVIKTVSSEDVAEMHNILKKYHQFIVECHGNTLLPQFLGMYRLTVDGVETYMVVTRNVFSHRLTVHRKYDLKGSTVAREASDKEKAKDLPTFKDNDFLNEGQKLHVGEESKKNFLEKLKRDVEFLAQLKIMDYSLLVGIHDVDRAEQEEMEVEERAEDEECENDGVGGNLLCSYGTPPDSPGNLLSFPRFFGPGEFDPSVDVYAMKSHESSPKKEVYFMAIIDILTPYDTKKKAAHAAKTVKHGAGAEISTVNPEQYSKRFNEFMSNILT
Sequence of Serine/threonine-protein kinase 26 (Homo sapiens) (Q9P289 2-416 limits assumed): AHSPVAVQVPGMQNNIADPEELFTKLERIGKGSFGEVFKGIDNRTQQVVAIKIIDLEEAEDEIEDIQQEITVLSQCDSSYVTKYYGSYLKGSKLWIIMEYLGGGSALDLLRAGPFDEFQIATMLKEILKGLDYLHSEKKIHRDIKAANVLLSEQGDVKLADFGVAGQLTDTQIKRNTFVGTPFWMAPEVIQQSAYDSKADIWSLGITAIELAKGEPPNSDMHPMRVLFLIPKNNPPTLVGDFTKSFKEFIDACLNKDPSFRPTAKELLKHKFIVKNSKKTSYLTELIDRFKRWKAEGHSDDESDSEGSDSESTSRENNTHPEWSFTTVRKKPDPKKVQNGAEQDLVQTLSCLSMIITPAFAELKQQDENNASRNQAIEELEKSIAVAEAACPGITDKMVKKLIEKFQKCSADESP
Sequence of Serine/threonine-protein kinase tousled-like 1 (Homo sapiens) (Q9UKI8 whole entry): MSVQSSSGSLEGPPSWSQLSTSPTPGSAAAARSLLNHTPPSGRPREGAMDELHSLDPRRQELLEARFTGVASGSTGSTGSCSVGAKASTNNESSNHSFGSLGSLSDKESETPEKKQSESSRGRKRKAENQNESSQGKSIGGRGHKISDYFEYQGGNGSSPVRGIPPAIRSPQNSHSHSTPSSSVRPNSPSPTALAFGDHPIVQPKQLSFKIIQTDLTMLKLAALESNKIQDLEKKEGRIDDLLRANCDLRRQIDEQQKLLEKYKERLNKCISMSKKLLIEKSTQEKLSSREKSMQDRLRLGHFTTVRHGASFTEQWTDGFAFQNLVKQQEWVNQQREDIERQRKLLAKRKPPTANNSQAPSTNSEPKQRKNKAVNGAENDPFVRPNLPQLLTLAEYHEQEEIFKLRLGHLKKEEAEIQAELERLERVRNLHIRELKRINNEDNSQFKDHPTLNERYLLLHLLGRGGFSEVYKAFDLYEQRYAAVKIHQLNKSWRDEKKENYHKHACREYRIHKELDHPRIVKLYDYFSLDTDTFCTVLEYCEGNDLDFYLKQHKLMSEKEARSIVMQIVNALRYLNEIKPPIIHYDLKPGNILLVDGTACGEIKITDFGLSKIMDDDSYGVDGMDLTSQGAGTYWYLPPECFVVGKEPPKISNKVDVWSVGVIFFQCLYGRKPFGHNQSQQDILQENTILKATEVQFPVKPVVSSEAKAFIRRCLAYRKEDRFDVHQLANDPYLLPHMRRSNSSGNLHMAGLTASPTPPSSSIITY

| Structure (SMILES) | % Inhibition of Control Values (Mean n=2) [1] | % Inhibition of Control Specific Binding (Mean n=2) [2] | % Inhibition of Control Specific Binding (Mean n=2) [3] | % Inhibition of Control Specific Binding (Mean n=2) [4] | residual activity [5] | residual activity [6] | residual activity [7] | residual activity [8] | residual activity [9] | residual activity [10] | residual activity [11] | residual activity [12] | residual activity [13] | residual activity [14] | residual activity [15] | residual activity [16] | residual activity [17] | residual activity [18] | residual activity [19] | residual activity [20] | other results |
| --- | --- | --- | --- | --- | --- | --- | --- | --- | --- | --- | --- | --- | --- | --- | --- | --- | --- | --- | --- | --- | --- |
| O=C(NS(=O)(=O)c1ccc(NCC2CCOCC2)c([N+](=O)[O-])c1)c1ccc(N2CCN(Cc3ccc(C(F)(F)F)cc3-c3ccc(Cl)cc3)CC2)cc1Oc1cnc2[nH]ccc2c1 [A-1210227] | 11% | -5.2% | 5.3% | 12.3% | 89% | 100% | 87% | 100% | 100% | 87% | 100% | 100% | 81% | 96% | 91% | 89% | 85% | 78% | 85% | 99% | residual activity [21]: 100%; residual activity [22]: 96%; residual activity [23]: 72%; residual activity [24]: 98%; residual activity [25]: 100%; residual activity [26]: 100%; residual activity [27]: 100%; residual activity [28]: 100%; residual activity [29]: 100%; residual activity [30]: 100%; residual activity [31]: 100%; inhibition [32]: 54.3% |
| CO[C@H]1CC[C@H](CNc2ccc(S(=O)(=O)NC(=O)c3ccc(N4CCN(CC5=C(c6ccc(Cl)cc6)CC(C)(C)CC5)CC4)cc3Oc3cnc4[nH]ccc4c3)cc2[N+](=O)[O-])CC1 [A-1211212] | 3.2% | -11.2% | 4.7% | 20.6% | 84% | 100% | 68% | 100% | 100% | 76% | 80% | 100% | 61% | 87% | 85% | 91% | 83% | 82% | 82% | 100% | residual activity [21]: 93%; residual activity [22]: 92%; residual activity [23]: 97%; residual activity [24]: 100%; residual activity [25]: 69%; residual activity [26]: 100%; residual activity [27]: 96%; residual activity [28]: 71%; residual activity [29]: 100%; residual activity [30]: 82%; residual activity [31]: 100%; inhibition [32]: 60.7% |
